In brackets after ≈: the same amount, converted by molar mass. Activity calls are given as the source filed them. No cut-off for these calls is given here.
Key:
[1] = Antiproliferative activity against human UM-UC-9 assessed as inhibition of cell proliferation measured after 7 days by IncuCyte live-cell imaging assay; details: UM-UC-9, 168 h
[2] = Antiproliferative activity against human UM-UC-9 assessed as inhibition of cell proliferation by measuring maximum efficacy after 7 days by IncuCyte live-cell imaging assay; type: functional; details: UM-UC-9, 168 h, time 7 day
[3] = Microsomal stability in human liver microsomes assessed as intrinsic clearance at 1 uM measured upto 60 mins in presence of NADPH by HPLC-MS/MS analysis; type: ADME, Microsome; details: read-out: CLH (converted)
[4] = Stability in rat hepatocytes assessed as intrinsic clearance at 1 uM incubated for 1 hr by HPLC-MS/MS analysis; type: ADME, cell-based, Hepatocyte; details: read-out: CLH (converted)
[5] = Stability of compound in GSH at pH 7.4 assessed as parent compound remaining at 10 mM and measured after 1 hrs by HPLC-UV analysis; type: physicochemical; details: GSH solution, read-out: Stability
[6] = Stability of compound in GSH at pH 7.4 assessed as parent compound remaining at 10 mM and measured after 2 hrs by HPLC-UV analysis; type: physicochemical; details: GSH solution, read-out: Stability
[7] = Stability of compound in GSH at pH 7.4 assessed as parent compound remaining at 10 mM and measured after 4 hrs by HPLC-UV analysis; type: physicochemical; details: GSH solution, read-out: Stability
[8] = Stability of compound in GSH at pH 7.4 assessed as parent compound remaining at 10 mM and measured after 24 hrs by HPLC-UV analysis; type: physicochemical; details: GSH solution, read-out: Stability
[9] = Stability of compound in cysteine at pH 7.4 assessed as parent compound remaining at 10 mM and measured after 1 hrs by HPLC-UV analysis; type: physicochemical; details: cysteine solution, read-out: Stability
[10] = Stability of compound in cysteine at pH 7.4 assessed as parent compound remaining at 10 mM and measured after 2 hrs by HPLC-UV analysis; type: physicochemical; details: cysteine solution, read-out: Stability
[11] = Stability of compound in cysteine at pH 7.4 assessed as parent compound remaining at 10 mM and measured after 4 hrs by HPLC-UV analysis; type: physicochemical; details: cysteine solution, read-out: Stability
[12] = Stability of compound in cysteine at pH 7.4 assessed as parent compound remaining at 10 mM and measured after 24 hrs by HPLC-UV analysis; type: physicochemical; details: cysteine solution, read-out: Stability
[13] = Apparent permeability across basolateral to apical side in human Caco-2 cells at 2 uM incubated for 2 hrs by LC-MS/MS analysis; type: ADME, cell-based
[14] = Thermodynamic solubility of compound at pH 6.5 PBS buffer; type: physicochemical; details: read-out: Therm_solubility
[15] = target: T1, Nuclear receptor subfamily 1 group I member 2 (Homo sapiens, UniProt O75469); test: Transactivation of human PXR in human HepG2 cells co-expressing luciferase gene under control of CYP3A4 promoter assessed as increase in luciferase activity incubated for 24 hrs by luminescence based analysis; type: ADME, cell-based
T1 sequence (O75469 whole entry): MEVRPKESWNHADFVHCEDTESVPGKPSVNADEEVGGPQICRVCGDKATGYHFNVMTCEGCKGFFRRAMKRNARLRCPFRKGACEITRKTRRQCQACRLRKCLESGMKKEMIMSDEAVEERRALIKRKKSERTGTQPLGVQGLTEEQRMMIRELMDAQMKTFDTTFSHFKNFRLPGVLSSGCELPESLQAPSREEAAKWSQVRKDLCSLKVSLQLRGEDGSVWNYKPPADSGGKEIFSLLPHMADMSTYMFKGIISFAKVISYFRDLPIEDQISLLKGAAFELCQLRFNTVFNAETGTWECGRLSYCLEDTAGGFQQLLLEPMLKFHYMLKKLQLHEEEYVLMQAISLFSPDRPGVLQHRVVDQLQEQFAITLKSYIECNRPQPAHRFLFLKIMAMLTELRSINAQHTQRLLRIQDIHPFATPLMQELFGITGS

[16] = AUClast in Wistar rat at 0.3 mg/kg,iv measured upto 24 hrs by HPLC-MS/MS analysis; type: ADME, organism-based; set-up: dose 0.3 mg/kg, time < 24 hrs, route iv; details: in vivo
[17] = Clearance in Wistar rat at 0.3 mg/kg,iv measured upto 24 hrs by HPLC-MS/MS analysis; type: ADME, organism-based; details: in vivo
[18] = Volume of distribution at steady state in Wistar rat at 0.3 mg/kg,iv measured upto 24 hrs by HPLC-MS/MS analysis; type: ADME, organism-based; details: in vivo, read-out: Vdss
[19] = Half life in Wistar rat at 0.3 mg/kg,iv measured upto 24 hrs by HPLC-MS/MS analysis; type: ADME, organism-based; details: in vivo
[20] = AUClast in NMRI-nu/nu mouse at 100 mg/kg,po measured upto 24 hrs by HPLC-MS/MS analysis; type: ADME, organism-based; set-up: time < 24 hrs, dose 100 mg/kg, route po; details: in vivo
[21] = Cmax in NMRI-nu/nu mouse at 100 mg/kg,po measured upto 24 hrs by HPLC-MS/MS analysis; type: ADME, organism-based; set-up: time < 24 hrs, dose 100 mg/kg, route po; details: in vivo
[22] = Tmax in NMRI-nu/nu mouse at 100 mg/kg,po measured upto 24 hrs by HPLC-MS/MS analysis; type: ADME, organism-based; details: in vivo
[23] = target: T2, Peroxisome proliferator-activated receptor gamma (Mus musculus) (UniProt P37238); test: Inverse agonist activity at PPARgamma in NMRI-nu/nu mouse assessed as reduction in Fabp4 mRNA expression in adipose tissue at 100 mg/kg for 3 days and measured 6 hrs last dose by qPCR analysis; type: organism-based; details: time 3.0 day
T2 sequence (whole entry): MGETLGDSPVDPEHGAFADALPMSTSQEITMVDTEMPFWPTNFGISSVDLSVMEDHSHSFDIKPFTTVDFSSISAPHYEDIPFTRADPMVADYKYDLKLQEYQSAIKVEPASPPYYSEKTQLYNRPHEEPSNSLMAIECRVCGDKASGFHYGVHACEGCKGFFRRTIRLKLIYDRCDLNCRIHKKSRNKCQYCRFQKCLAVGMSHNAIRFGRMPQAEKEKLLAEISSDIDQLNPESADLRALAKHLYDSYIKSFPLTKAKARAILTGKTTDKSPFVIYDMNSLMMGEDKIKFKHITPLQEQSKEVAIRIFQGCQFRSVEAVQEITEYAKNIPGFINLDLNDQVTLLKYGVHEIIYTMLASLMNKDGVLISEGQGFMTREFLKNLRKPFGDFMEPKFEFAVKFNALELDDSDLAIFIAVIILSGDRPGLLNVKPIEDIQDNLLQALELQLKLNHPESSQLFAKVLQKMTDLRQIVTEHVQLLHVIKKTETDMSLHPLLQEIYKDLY

[24] = target: T2, Peroxisome proliferator-activated receptor gamma (Mus musculus); test: Inverse agonist activity at PPARgamma in NMRI-nu/nu mouse assessed as reduction in Fabp4 mRNA expression in adipose tissue at 50 mg/kg for 3 days and measured 6 hrs last dose by qPCR analysis; type: organism-based; details: time 3.0 day
[25] = target: T2, Peroxisome proliferator-activated receptor gamma (Mus musculus); test: Inverse agonist activity at PPARgamma in NMRI-nu/nu mouse assessed as fold reduction in Fabp4 mRNA expression in adipose tissue at 50 mg/kg for 3 days and measured 15 hrs last dose by qPCR analysis; type: organism-based; details: filed as inverse agonist, time 3.0 day
[26] = target: T2, Peroxisome proliferator-activated receptor gamma (Mus musculus); test: Inverse agonist activity at PPARgamma in NMRI-nu/nu mouse assessed as decrease in Acaab1 mRNA expression in adipose tissue at 50 mg/kg for 3 days and measured upto 15 hrs last dose by qPCR analysis; type: organism-based; details: filed as inverse agonist, time 3.0 day
[27] = AUClast in Wistar rat at 1 mg/kg,iv measured upto 24 hrs by HPLC-MS/MS analysis; type: ADME, organism-based; set-up: time < 24 hrs, dose 1 mg/kg, route iv; details: in vivo
[28] = Clearance in Wistar rat at 1 mg/kg,iv measured upto 24 hrs by HPLC-MS/MS analysis; type: ADME, organism-based; details: in vivo
[29] = Volume of distribution at steady state in Wistar rat at 1 mg/kg,iv measured upto 24 hrs by HPLC-MS/MS analysis; type: ADME, organism-based; details: in vivo, read-out: Vdss
[30] = Half life in Wistar rat at 1 mg/kg,iv measured upto 24 hrs by HPLC-MS/MS analysis; type: ADME, organism-based; details: in vivo
[31] = target: T2, Peroxisome proliferator-activated receptor gamma (Mus musculus); test: Inverse agonist activity at PPARgamma in NMRI-nu/nu mouse assessed as decrease in Acaab1 mRNA expression in adipose tissue at 100 mg/kg for 3 days and measured upto 15 hrs last dose by qPCR analysis; type: organism-based; details: filed as inverse agonist, time 3.0 day

Row | CLint scaled at 1 µM [3] | CLint scaled at 1 µM [4] | remaining at 1 h, 10000 µM [5] | remaining at 2 h, 10000 µM [6] | remaining at 4 h, 10000 µM [7] | remaining at 24 h, 10000 µM [8] | remaining at 1 h, 10000 µM [9] | remaining at 2 h, 10000 µM [10] | remaining at 4 h, 10000 µM [11] | remaining at 24 h, 10000 µM [12] | Papp B→A at 2 h, 2 µM [13] | solubility thermodynamic [14] | IC50 [15] | AUC(0-t) at 24 h [20] | Cmax [21] | Tmax [22] | Activity [23] | SMILES | IC50 [1] | Emax [2] | also measured
1 | 12.7 mL/min/kg | 28.8 mL/min/kg | 74.8% | 56.4% | 46.5% | 32% | 93% | 77.8% | 71% | 51.6% | 23.8 ×10⁻⁶ cm/s | 0.1 µg/mL (≈ 0.208 µM) | 14700 nM | 12000 ng·h/mL | 2100 nM | 7 h | inactive | Cc1cc(OC(F)F)ccc1NC(=O)c1cc(C(=O)NCc2ccc(F)cc2)c(F)cc1Cl | 19.4 nM | 55% | AUClast [16]: 1.6 kg·h/L; clearance [17]: 10.3 mL/min/kg; Vd [18]: 2.7 L/kg; half-life [19]: 4.8 h; Activity [24]: inactive; Activity [25]: Active; Activity [26]: Active
2 | 15.5 mL/min/kg | 29.3 mL/min/kg | 100% | 100% | 100% | 100% | 100% | 100% | 100% | 100% | 17.1 ×10⁻⁶ cm/s | 6.55 µg/mL (≈ 13.7 µM) | > 49800 nM | 1900 ng·h/mL | 3.2 nM | 1 h | inactive | CC(C)(O)c1ccc(NC(=O)c2cc(C(=O)NCc3ccc(F)c(F)c3)c(F)cc2Cl)cc1 | 40.4 nM | 71% | AUClast [27]: 0.18 kg·h/L; clearance [28]: 93.3 mL/min/kg; Vd [29]: 1.8 L/kg; half-life [30]: 0.19 h; Activity [31]: Active
